System: M. tuberculosis
Assay: Extracellular activity against M. tuberculosis in cholesterol media (Alamar Blue reduction assay)
Format: cell-based, Mycobacterium tuberculosis
Details: Mycobacterium tuberculosis, 240 h, 7H12-Cholesterol media, 10 days; read-out: Cholesterol broth: alamar blue--EC50

Q: `Cc1noc(CC(=O)N2CCC(n3nnc(-c4ccc(F)cc4)n3)CC2)n1` [Compound 51, 1-(4-(5-(4-fluorophenyl)-2H-tetrazol-2-yl)piperidin-1-yl)-2-(3-methyl-1,2,4-oxadiazol-5-yl)ethan-1-one] was tested. Which EC50 did it give?
A: Its EC50 is 7.64 µM.

Q: For `Cc1noc(CC(=O)N2CCC(c3nc(-c4ccc(F)cc4)co3)CC2)n1` [Compound 52, 1-(4-(4-(4-fluorophenyl)oxazol-2-yl)piperidin-1-yl)-2-(3-methyl-1,2,4-oxadiazol-5-yl)ethan-1-one], which EC50 is on record?
A: Its EC50 is greater than 10 µM.

Q: For `Cc1noc(CC(=O)N2CCC(c3noc(-c4ccc(F)cc4)n3)CC2)n1` [Compound 53, 1-(4-(5-(4-fluorophenyl)-1,2,4-oxadiazol-3-yl)piperidin-1-yl)-2-(3-methyl-1,2,4-oxadiazol-5-yl)ethan-1-one], which EC50 is on record?
A: The EC50 was greater than 10 µM.

Q: `Cc1noc(CC(=O)N2CCC(O)(c3nc(-c4ccc(F)cc4)no3)CC2)n1` [Compound 54, 1-(4-(3-(4-fluorophenyl)-1,2,4-oxadiazol-5-yl)-4-hydroxypiperidin-1-yl)-2-(3-methyl-1,2,4-oxadiazol-5-yl)ethan-1-one] was tested. Which EC50 did it give?
A: Its EC50 is greater than 10 µM.

Q: For `Cc1nocc1CC(=O)N1CCC(c2nc(C3CCCCC3)no2)CC1` [Compound 55, 1-(4-(3-cyclohexyl-1,2,4-oxadiazol-5-yl)piperidin-1-yl)-2-(3-methylisoxazol-4-yl)ethan-1-one], which EC50 is on record?
A: The EC50 was greater than 25 µM.

Q: For `Cc1nocc1CC(=O)N1CCC(n2nnc(C3CCCCC3)n2)CC1` [Compound 56, 1-(4-(5-cyclohexyl-2H-tetrazol-2-yl)piperidin-1-yl)-2-(3-methylisoxazol-4-yl)ethan-1-one], which EC50 is on record?
A: Its EC50 is greater than 25 µM.

Q: `Cc1nocc1CC(=O)N1CCC(c2nc(-c3ccc(Cl)c(Cl)c3)no2)CC1` [Compound 57, 1-(4-(3-(3,4-dichlorophenyl)-1,2,4-oxadiazol-5-yl)piperidin-1-yl)-2-(3-methylisoxazol-4-yl)ethan-1-one] was tested. Which EC50 did it give?
A: Its EC50 is 0.691 µM.

Q: How did the EC50 turn out when `Cc1nocc1CC(=O)N1CCC(c2nc(-c3ccc(F)cc3)no2)CC1` [Compound 58, 1-(4-(3-(4-fluorophenyl)-1,2,4-oxadiazol-5-yl)piperidin-1-yl)-2-(3-methylisoxazol-4-yl)ethan-1-one] was run?
A: The EC50 was 2.15 µM.

Q: `Cc1nonc1CC(=O)N1CCC(n2cc(C(=O)N3CCOCC3)nn2)CC1` [Compound 60, 2-(4-methyl-1,2,5-oxadiazol-3-yl)-1-(4-(4-(morpholine-4-carbonyl)-1H-1,2,3-triazol-1-yl)piperidin-1-yl)ethan-1-one] was tested. Which EC50 did it give?
A: The EC50 was greater than 10 µM.

Q: For `Cc1nonc1CC(=O)N1CCC(c2nc(C3CC3)no2)CC1` [Compound 61, 1-(4-(3-cyclopropyl-1,2,4-oxadiazol-5-yl)piperidin-1-yl)-2-(4-methyl-1,2,5-oxadiazol-3-yl)ethan-1-one], which EC50 is on record?
A: Its EC50 is greater than 10 µM.

Q: How did the EC50 turn out when `Cc1nonc1CC(=O)N1CCC(n2nnc(C3CC3)n2)CC1` [Compound 62, 1-(4-(5-cyclopropyl-2H-tetrazol-2-yl)piperidin-1-yl)-2-(4-methyl-1,2,5-oxadiazol-3-yl)ethan-1-one] was run?
A: Its EC50 is no less than 10 µM.

Q: With `Cc1nonc1CC(=O)N1CCC(c2nc(C3CC4CCC3C4)no2)CC1` (stereo not drawn) [Compound 64, 1-(4-(3-(bicyclo[2.2.1]heptan-2-yl)-1,2,4-oxadiazol-5-yl)piperidin-1-yl)-2-(4-methyl-1,2,5-oxadiazol-3-yl)ethan-1-one] as the compound, how does the EC50 read?
A: Its EC50 is 0.447 µM.

Q: `Cc1nonc1CC(=O)N1CCC(c2noc(C3CC34CCC4)n2)CC1` (stereo not drawn) [Compound 65, 2-(4-methyl-1,2,5-oxadiazol-3-yl)-1-(4-(5-(spiro[2.3]hexan-1-yl)-1,2,4-oxadiazol-3-yl)piperidin-1-yl)ethan-1-one] was tested. Which EC50 did it give?
A: The EC50 was 15 µM.

Q: For `Cc1nonc1CC(=O)N1CCC(c2nc(C3CCC3)no2)CC1` [Compound 66, 1-(4-(3-cyclobutyl-1,2,4-oxadiazol-5-yl)piperidin-1-yl)-2-(4-methyl-1,2,5-oxadiazol-3-yl)ethan-1-one], which EC50 is on record?
A: Its EC50 is greater than 25 µM.

Q: With `Cc1nonc1CC(=O)N1CCC(c2nc(C3CCC4(CC3)OCCO4)no2)CC1` [Compound 67, 1-(4-(3-(1,4-dioxaspiro[4.5]decan-8-yl)-1,2,4-oxadiazol-5-yl)piperidin-1-yl)-2-(4-methyl-1,2,5-oxadiazol-3-yl)ethan-1-one] as the compound, how does the EC50 read?
A: The EC50 was greater than 10 µM.

Q: With `Cc1nonc1CC(=O)N1CCC(c2nc(C3CCC4(CC3)CC4)no2)CC1` [Compound 68, 2-(4-methyl-1,2,5-oxadiazol-3-yl)-1-(4-(3-(spiro[2.5]octan-6-yl)-1,2,4-oxadiazol-5-yl)piperidin-1-yl)ethan-1-one] as the compound, how does the EC50 read?
A: The EC50 was 1.86 µM.

Q: How did the EC50 turn out when `Cc1nonc1CC(=O)N1CCC(c2noc(C3CCC4(CC3)CC4)n2)CC1` [Compound 69, 2-(4-methyl-1,2,5-oxadiazol-3-yl)-1-(4-(5-(spiro[2.5]octan-6-yl)-1,2,4-oxadiazol-3-yl)piperidin-1-yl)ethan-1-one] was run?
A: Its EC50 is greater than 25 µM.

Q: Which EC50 does the source give for `Cc1nonc1CC(=O)N1CCC(c2nc(C3CCCC3)no2)CC1` [Compound 70, 1-(4-(3-cyclopentyl-1,2,4-oxadiazol-5-yl)piperidin-1-yl)-2-(4-methyl-1,2,5-oxadiazol-3-yl)ethan-1-one] here?
A: The EC50 was 3.68 µM.

Q: Which EC50 does the source give for `Cc1nonc1CC(=O)N1CCC(n2nnc(C3CCCC3)n2)CC1` [Compound 71, 1-(4-(5-cyclopentyl-2H-tetrazol-2-yl)piperidin-1-yl)-2-(4-methyl-1,2,5-oxadiazol-3-yl)ethan-1-one] here?
A: Its EC50 is greater than 25 µM.

Q: With `Cc1nonc1CC(=O)N1CCC(c2nc(C3CCCC4CC43)no2)CC1` (stereo not drawn) [Compound 72, 1-(4-(3-(bicyclo[4.1.0]heptan-2-yl)-1,2,4-oxadiazol-5-yl)piperidin-1-yl)-2-(4-methyl-1,2,5-oxadiazol-3-yl)ethan-1-one] as the compound, how does the EC50 read?
A: The EC50 was greater than 10 µM.

Q: How did the EC50 turn out when `Cc1nonc1CC(=O)N1CCC(c2nc(C3CCCCC3)no2)CC1` [Compound 73, 1-(4-(3-cyclohexyl-1,2,4-oxadiazol-5-yl)piperidin-1-yl)-2-(4-methyl-1,2,5-oxadiazol-3-yl)ethan-1-one] was run?
A: Its EC50 is 0.674 µM.

Q: For `Cc1nonc1CC(=O)N1CCC(n2nnc(C3CCCCC3)n2)CC1` [Compound 74, 1-(4-(5-cyclohexyl-2H-tetrazol-2-yl)piperidin-1-yl)-2-(4-methyl-1,2,5-oxadiazol-3-yl)ethan-1-one], which EC50 is on record?
A: Its EC50 is 2.07 µM.

Q: Which EC50 does the source give for `Cc1nonc1CC(=O)N1CCC(O)(c2nc(C3CCCCC3)no2)CC1` [Compound 75, 1-(4-(3-cyclohexyl-1,2,4-oxadiazol-5-yl)-4-hydroxypiperidin-1-yl)-2-(4-methyl-1,2,5-oxadiazol-3-yl)ethan-1-one] here?
A: Its EC50 is greater than 10 µM.

Q: For `Cc1nonc1CC(=O)N1CCC(c2nc(C3CCOCC3)no2)CC1` [Compound 76, 2-(4-methyl-1,2,5-oxadiazol-3-yl)-1-(4-(3-(tetrahydro-2H-pyran-4-yl)-1,2,4-oxadiazol-5-yl)piperidin-1-yl)ethan-1-one], which EC50 is on record?
A: The EC50 was greater than 10 µM.

Q: Which EC50 does the source give for `Cc1nonc1CC(=O)N1CCC(c2noc(C34CCC(CC3)C4)n2)CC1` [Compound 77, 1-(4-(5-(bicyclo[2.2.1]heptan-1-yl)-1,2,4-oxadiazol-3-yl)piperidin-1-yl)-2-(4-methyl-1,2,5-oxadiazol-3-yl)ethan-1-one] here?
A: Its EC50 is greater than 25 µM.

Q: How did the EC50 turn out when `Cc1nonc1CC(=O)N1CCC(c2nc(C34CCC(CC3)C4)no2)CC1` [Compound 78, 1-(4-(3-(bicyclo[2.2.1]heptan-1-yl)-1,2,4-oxadiazol-5-yl)piperidin-1-yl)-2-(4-methyl-1,2,5-oxadiazol-3-yl)ethan-1-one] was run?
A: Its EC50 is 3.76 µM.

Q: `Cc1nonc1CC(=O)N1CCC(n2ccc(-c3ccccc3)n2)CC1` [Compound 79, 2-(4-methyl-1,2,5-oxadiazol-3-yl)-1-(4-(3-phenyl-1H-pyrazol-1-yl)piperidin-1-yl)ethan-1-one] was tested. Which EC50 did it give?
A: Its EC50 is greater than 10 µM.

From patent US20260048047A1, “SMALL-MOLECULE ACTIVATORS OF MYCOBACTERIUM TUBERCULOSIS ADENYLYL CYCLASE” (priority 2022, published 2026)
